Measurements from US6676950B2, “Neurokinin receptor antagonists and methods of use thereof for inhibiting HIV infection” (The Children's Hospital of Philadelphia, priority 2001, dated 2004).

Legend:
HIV Bal strain = test: HIV RT activity in culture supernatants of HIV Bal strain-infected MDM; format: cell-based, HIV-1; conditions: for HIV RT activity increased: MDM, HIV Bal
Method: The cells were also incubated with SP and/or anti-SP antibody. In this case, SP was incubated with (1:1000 dilution in 10% FCS DMEM) or without anti-SP antibody at room temperature for 10 min and then the mixture was added to the cell cultures for 2 h. When the cells were treated with the combination of CP-96,345 and SP, or CP-96,345, SP and anti-SP antibody, CP-96,345 was incubated with the cell culture for 10 min and then SP was added to the MDM or CP-96,345, SP and anti-SP (1:1000 in 10% FCS DMEM) were incubated for 10 min at room temperature and the mixture was incubated with the MDM for 2 h before infection with HIV. Untreated MDM served as controls. The cells were treated prior to, during, and throughout the infection.
HIV Infection: After 2 h incubation with or without the reagents described above, the cells were infected with equal amounts of cell-free HIV based on p24 antigen content (20 ng/10^6 cells) overnight, and then washed to remove unbound virus. Fresh media containing SP and/or CP-96,345 or anti-SP antibody were added to the MDM as described above. The culture media and the reagents were replaced twice weekly. The culture supernatants were harvested for HIV reverse transcriptase (RT) activity determinations. After HIV infection, the MDM were incubated for 8 to 12 days. At the termination of the experiments, cellular RNA was extracted for assessment of HIV gag gene expression using RT-PCR or real time RT-PCR assays.
The HIV RT activity assay was carried out based on the technique of Willey et al. (30) with modification (22).

CCR5 = test: Flow cytometry of CCR5 receptor expression on MDM; format: cell-based, human; conditions: incubated overnight (24 h); direct immunofluorescence
Method: The cells were removed from the culture plate and then resuspended in 100 μl of phosphate-buffered saline (PBS). After incubation with 20 μl of either anti-CCR5-FITC or anti-CXCR4-FITC or anti-CD4-FITC or anti-CD14-FITC for 45 min at 4° C., the cells were washed twice with PBS and fixed with 1% paraformaldehyde in PBS. Fluorescein-conjugated control antibodies were isotype-matched IgG. Fluorescence was analyzed on an EPICS-Elite flow cytometer (Beckman-Coulter Electronics, Hialeah, Fla.).

HIV LTR promoter = test: HIV LTR-driven CAT activity assay in U38 cells; format: cell-based
Description: ACH-2 and U38 cell lines (25, 26) were obtained from the NIH AIDS Reagent Program. DNA extracted from ACH-2 cells was used as a positive standard for HIV DNA PCR as previously reported (27). The U38 cell line contains stably integrated, silent copies of the HIV LTR (long terminal repeat) promoter linked to a CAT (chloramphenicol acetyltransferase) gene and was used to study the effect of SP and/or CP-96,345 and R-113281 on the activation of HIV LTR promoter.
Chloramphenicol acetyltransferase (CAT) activity assay: U38 cells (2×10^6 cells) were incubated with different concentrations of SP and/or CP-96,345 or R-113281 for 48 h. Untreated U38 cells were used as a background control. Cellular proteins were extracted using 1X Reporter Lysis Bufffer (Promega Corp., Madison, Wis.). The lysates were incubated with a mixture containing 0.15 μCi of ^14C-labeled chloramphenicol (DuPont Inc., Boston, Mass.) and 200 μg/ml of n-Butyryl CoA (Promega Corp., Madison, Wis.) in a total volume of 125 μl at 37° C. for 3 h. The acetylated forms of chloramphenicol were extracted with xylene (Aldrich Chemical Company, Milwaukee, Wis.). CAT activity of each sample was quantified using a liquid-scintillation counter (Packard Instrument Company, Downers Grove, Ill.). The results were expressed as the ratio of CAT activity (CPM) of the SP and/or CP-96,345-treated or R-113281-treated U38 to that of the background control.

Row | Compound | viral replication as determined by HIV RT activity (HIV Bal strain; 10^−7M, 8 days after infection, vs HIV infection control) | CCR5 receptor expression on MDM (percentage positive cells) (CCR5) | HIV RT activity increased (HIV Bal strain; SP 10^−6M, 12 days after infection) [%] | HIV RT activity increased (HIV Bal strain; SP 10^−8M, 12 days after infection) [%] | HIV RT activity increased (HIV Bal strain; SP 10^−10M, 12 days after infection) [%] | HIV replication in MDM (HIV RT activity and HIV gag mRNA levels) (HIV Bal strain; SP alone 10^−6M, 12 days after infection) | HIV LTR-driven CAT activity (HIV LTR promoter; SP 10^−10 to 10^−6M, 48 h, P<0.05 vs untreated control cells) | HIV LTR-driven CAT activity (HIV LTR promoter; SP (10^−5M), 48 hours)
1 | COc1ccccc1CN[C@H]1C2CCN(CC2)[C@H]1C(c1ccccc1)c1ccccc1 [CP-96,344] | did not have the effect | did not affect | – | – | – | – | – | –
2 | Substance P [SP] | – | – | 58 | 40 | 14 | enhanced HIV replication | significantly increased | significantly increases
